Test results: US6436992B1, “Use of fumaric acid derivatives” (Fumapharm AG, priority 1997, dated 2002)

Test system: haemagglutinin formation in mice
Assay: Inhibition of haemagglutinin formation in mice immunised with sheep erythrocytes, after peroral administration
Type: in vivo
[1] = mice, 150 mg/kg bodyweight p.o.
[2] = mice, 300 mg/kg bodyweight p.o.
[3] = mice, 600 mg/kg bodyweight p.o.

COC(=O)/C=C/C(=O)[O-].[Ca+] [Methyl hydrogen fumarate-Ca salt]
Inhibition of haemagglutinin formation in % [1]: 13% | Suppression index [1]: 0.87 | Inhibition of haemagglutinin formation in % [2]: 20% | Suppression index [2]: 0.80 | effect on haemagglutinin formation (in words) (mice, 300 mg/kg p.o.): slight reduction | Inhibition of haemagglutinin formation in % [3]: 38% | Suppression index [3]: 0.62 | suppressive effect on haemagglutinin formation (in words, over dose range) (mice, 150, 300 and 600 mg/kg p.o.): dosage-dependent suppressive effect | immuno-suppressive effect (conclusion) (mice, p.o.): significant immuno-suppressive effect
